Data reported in article PMC4139342, “Pharmacokinetics-Pharmacodynamics Analysis of Bicyclic 4-Nitroimidazole Analogs in a Murine Model of Tuberculosis” (PLoS ONE, 2014).
Converted amounts (≈) assume the structure as drawn. Like-named read-outs stand apart in the source and are kept apart here.

Legend:
[1] = test system: M. tuberculosis (Mtb) (H37Rv, ATCC 27294); assay: microbe, parasite or virus in culture; format: cell-based; details: Mycobacterium tuberculosis
[2] = Cytotoxicity against THP1 macrophage cell lines; format: cell-based; details: human
[3] = test system: Mtb H37Rv; assay: In vivo mouse efficacy, established murine TB model; set-up: species or system Balb/c mice; details: for log reduction at 100 mg/kg / log reduction at 25 mg/kg: Mycobacterium tuberculosis, H37RV, po, 672 h, read-out: Mean log lung CFU reduction ± SEM compared to untreated controls
Method: In vivo mouse efficacy studies were determined after intranasal infection of Balb/c mice with 10^3 cfu Mtb H37Rv. Treatment was initiated 4 weeks after infection. Compounds were orally administered in CM-2 formulation for 4 weeks daily. Bacterial loads were determined at 2 and 4 weeks post treatment. Statistical analysis was done by a one-way analysis of variance, followed by a multiple comparison analysis of variance by a one-way Tukey test (GraphPad Prism, version 5.02, San Diago, California USA, www.graphpad.com). Differences were considered statistically significant at the 95% level of confidence.

[4] = female, CD-1, mouse, in vivo, iv, 5 mg/kg
[5] = female, CD-1, mouse, in vivo, po, 25 mg/kg
[6] = in vivo; details: female, CD-1, mouse, po, 25 mg/kg
[7] = in vivo; details: female, CD-1, mouse, iv, 5 mg/kg
[8] = in vivo; details: female, CD-1, mouse, po, 25 mg/kg; remark: listed apart in the source
[9] = physchem; details: pH 6.8, aqueous buffer, thermodynamic from solid
[10] = physchem
[11] = in vitro; details: human, Caco-2
[12] = in vitro; details: mouse, plasma
[13] = In vivo lung PK after oral dosing; details: female, CD-1, mouse, 25 mg/kg
[14] = In vivo plasma PK after intravenous dosing; details: mice
[15] = In vivo plasma PK after oral dosing in CM-2 formulation
[16] = female, CD-1, mouse, in vivo, po, 25 mg/kg; remark: listed apart in the source
[17] = test system: Mtb; details: murine model, cited from earlier work
[18] = set-up: method as in PMID 19528280; details: healthy subjects, oral daily doses for 7 days; cited from earlier work
[19] = set-up: method as in PMID 16870750; details: mice dosed for 2 months; cited from earlier work
[20] = PAMPA permeability
[21] = 100 mg/kg oral daily for 4 weeks, 5 animals
[22] = 25 mg/kg oral daily for 4 weeks, mean value from three independent experiments (n = 15)
[23] = mouse plasma, single oral dose 25 mg/kg, CM-2

Which MIC99 [1] does the source give for `O=[N+]([O-])c1cn2c(n1)OC1(CC1)C(OCc1ccc(OC(F)(F)F)cc1)C2` (centres unmarked) [NI-302] here?
Its MIC99 is 0.03 µg/mL (≈ 0.0779 µM).

What about the CC50 [2] of the same compound?
The CC50 was over 10 µg/mL.

What about the “Mean log lung CFU ± SEM” value [3, 21] of the same compound?
The value was 4.45±0.22 log CFU.

What about the “Efficacy compared with PA-824, in words” value ([3]; 100 mg/kg oral daily for 4 weeks, significance at P<0.05) of the same compound?
The value was “comparable efficacy to PA-824”.

And the log reduction at 100 mg/kg [3, 21]?
The log reduction at 100 mg/kg was 2.17 ± 0.22.

And the “PAMPA %FA” value?
The value was 99%.

And the “PAMPA Log Pe” value?
Its value is “–3.6 cm/sec”.

And the “i.v. CL” value [4]?
Its value is 4.3 mL/min/kg.

And the “Lung AUC24” value [5]?
The value was 100.3 µg·h/g.

What about the “Lung Cmax” value [5] of the same compound?
The value was 9.7 µg/g.

And the AUC [6]?
The AUC was 144000 ng·h/mL.

And the Cmax [6]?
The Cmax was 12900 ng/mL.

What about the bioavailability [6] of the same compound?
Its bioavailability is 100%.

And the Vd [7]?
Its Vd is 1.2 L/kg.

What about the clearance ([7]; i.v. CL) of the same compound?
The clearance was 5 mL/min/kg.

What about the Kp ([8]; Lung to Plasma ratio AUC24) of the same compound?
Its Kp is 0.7.

And the Kp ([8]; Lung to Plasma ratio Cmax)?
The Kp was 0.8.

And the solubility [9]?
The solubility was 26 µg/mL (≈ 67.5 µM).

What about the logP [10] of the same compound?
The logP was 3.2.

What about the Papp A→B [11] of the same compound?
The Papp A→B was 45.1 ×10⁻⁶ cm/s.

And the Papp B→A [11]?
The Papp B→A was 18.7 ×10⁻⁶ cm/s.

What about the efflux ratio [11] of the same compound?
The efflux ratio was 0.4.

And the fraction unbound [12]?
The fraction unbound was 0.043.

What about the half-life [13] of the same compound?
The half-life was 4.1 h.

And the half-life ([14]; female, CD-1, mouse, plasma, iv, 5 mg/kg, T1/2 (i.v), i.v. dosing at 5 mg/kg)?
Its half-life is 3.7 h.

And the half-life ([15]; female, CD-1, mouse, plasma, po, 25 mg/kg)?
Its half-life is 4.1 h.

With `O=[N+]([O-])c1cn2c(n1)OC[C@@H](OCc1ccc(OC(F)(F)F)cc1)C2` [PA-824, (6S)-2-nitro-6-{[4-(trifluoromethoxy)benzyl]oxy}-6,7-dihydro-5H-imidazo[2,1-b][1, 3]oxazine, reference compound] as the compound, how does the MIC99 [1] read?
Its MIC99 is 0.3 µg/mL (≈ 0.835 µM).

What about the CC50 ([2]; THP1 macrophage cell line, THP1 macrophage cell lines, read-out: Cytotoxicity CC50) of the same compound?
The CC50 was over 10 µg/mL.

What about the “Mean log lung CFU reduction ± SEM compared to untreated controls” value [3, 22] of the same compound?
Its value is 1.48 ± 0.09 log CFU.

And the “Dose dependence of efficacy, in words” value ([3]; 25 versus 100 mg/kg oral daily for 4 weeks)?
Its value is “dose dependent increase in efficacy”.

And the log reduction at 25 mg/kg ([3]; 25 mg/kg oral daily for 4 weeks, 5 animals)?
Its log reduction at 25 mg/kg is 1.23 to 1.56.

And the log reduction at 25 mg/kg [3, 22]?
Its log reduction at 25 mg/kg is 1.48 ± 0.09.

What about the log reduction at 100 mg/kg [3, 21] of the same compound?
Its log reduction at 100 mg/kg is 1.95 ± 0.13.

What about the log reduction at 100 mg/kg ([3]; 100 mg/kg oral daily for 4 weeks, mean value from three independent experiments (n = 15)) of the same compound?
The log reduction at 100 mg/kg was 2.3 ± 0.08.

And the “Plasma free fCmax” value [16]?
Its value is 0.6 µg/mL.

What about the “Lung AUC24” value [5] of the same compound?
The value was 139.9 µg·h/g.

And the “Lung Cmax” value [5]?
Its value is 17.8 µg/g.

And the “fT>MIC in plasma required” value ([17]; for 1-log10 kill)?
Its value is 48%.

And the “fT>MIC in plasma required” value ([17]; for 1.59 log10 kill)?
The value was 77%.

What about the “fT>MIC in plasma required” value ([17]; for bacteriostatic effect) of the same compound?
Its value is 22%.

What about the Tolerability [18] of the same compound?
Its Tolerability is “well tolerated”.

And the Plasma accumulation [19]?
Its Plasma accumulation is “absence of plasma accumulation”.

What about the AUC [6] of the same compound?
Its AUC is 50900 ng·h/mL.

What about the Tmax [8] of the same compound?
The Tmax was 0.3 h.

What about the Kp ([8]; Lung to Plasma ratio AUC24) of the same compound?
Its Kp is 2.7.

What about the Kp ([8]; Lung to Plasma ratio Cmax) of the same compound?
Its Kp is 3.

And the solubility [9]?
Its solubility is 13 µg/mL (≈ 36.2 µM).

What about the logP [10] of the same compound?
Its logP is 2.75.

What about the Papp A→B [11] of the same compound?
Its Papp A→B is 27.6 ×10⁻⁶ cm/s.

And the Papp B→A [11]?
Its Papp B→A is 20.4 ×10⁻⁶ cm/s.

What about the efflux ratio [11] of the same compound?
Its efflux ratio is 0.8.

And the fraction unbound [12]?
The fraction unbound was 0.1.

What about the “PAMPA Log Pe” value ([20]; effective permeability) of the same compound?
The value was “–4.2 cm/sec”.

And the “PAMPA %FA” value ([20]; fraction absorbed)?
Its value is 99%.

And the half-life [13]?
Its half-life is 4.8 h.

And the “T1/2 (i.v)” value ([14]; i.v. dosing at 10 mg/kg)?
The value was 1.6 h.

And the “i.v. CL” value ([14]; i.v. dosing at 10 mg/kg)?
The value was 12.1 mL/min/kg.

What about the “i.v. Vss” value ([14]; i.v. dosing at 10 mg/kg) of the same compound?
Its value is 1.6 L/kg.

What about the “F, oral bioavailability” value ([15]; mice, p.o. 25 mg/kg versus i.v. 5 mg/kg (PA-824: i.v. 10 mg/kg)) of the same compound?
The value was 100%.

What about the “T1/2 (p.o.)” value [15, 23] of the same compound?
Its value is 2.7.

What about the “p.o. Tmax” value [15, 23] of the same compound?
Its value is 2 h.

What about the “p.o. Cmax” value ([15]; mouse plasma, total concentration, single oral dose 25 mg/kg, CM-2) of the same compound?
The value was 6000 ng/mL.
